Laboratory results reported in ChEMBL document CHEMBL1154276, “Discovery of highly potent novel antifungal azoles by structure-based rational design” (2009).
Converted amounts (≈) assume the structure as drawn.

Assays:
Assay type in all cases: functional
[1] = tested on: Cryptococcus neoformans; assay: Antifungal activity against Cryptococcus neoformans by serial dilution method after 72 hrs
[2] = tested on: Candida albicans; assay: Antifungal activity against Candida albicans by serial dilution method after 24 hrs
[3] = tested on: Nannizzia gypsea; assay: Antifungal activity against Microsporum gypseum by serial dilution method […]
[4] = tested on: Candida tropicalis; assay: Antifungal activity against Candida tropicalis by serial dilution method after 24 hrs
[5] = tested on: Trichophyton rubrum; assay: Antifungal activity against Trichophyton rubrum by serial dilution method after 7 days; conditions: 168 h
[6] = tested on: Aspergillus fumigatus; assay: Antifungal activity against Aspergillus fumigatus by serial dilution method after 7 days; conditions: 168 h
[7] = tested on: Cryptococcus neoformans; assay: Selectivity ratio of compound MIC80 to voriconazole MIC80 for Cryptococcus neoformans

| SMILES | MIC80 [1] | MIC80 [2] | MIC80 [3] | MIC80 [4] | MIC80 [5] | MIC80 [6] | Selectivity ratio [7] |
| --- | --- | --- | --- | --- | --- | --- | --- |
| CN(CCCCOc1ccccc1Br)CC(O)(Cn1cncn1)c1ccc(F)cc1F (centres undefined) | 0.004 µg/mL (≈ 0.00807 µM) | 0.0156 µg/mL (≈ 0.0315 µM) | 0.0625 µg/mL (≈ 0.126 µM) | 0.0156 µg/mL (≈ 0.0315 µM) | 0.0625 µg/mL (≈ 0.126 µM) | > 64 µg/mL | 4 |
| Cc1ccc(OCCCCN(C)CC(O)(Cn2cncn2)c2ccc(F)cc2F)cc1 (centres undefined) | 0.0625 µg/mL (≈ 0.145 µM) | 0.0156 µg/mL (≈ 0.0362 µM) | 0.0625 µg/mL (≈ 0.145 µM) | 0.004 µg/mL (≈ 0.00929 µM) | 0.0156 µg/mL (≈ 0.0362 µM) | 16 µg/mL (≈ 37.2 µM) | – |
| Cc1ccccc1OCCCCN(C)CC(O)(Cn1cncn1)c1ccc(F)cc1F (centres undefined) | 0.0156 µg/mL (≈ 0.0362 µM) | 0.0625 µg/mL (≈ 0.145 µM) | 0.0625 µg/mL (≈ 0.145 µM) | 0.0156 µg/mL (≈ 0.0362 µM) | 0.0625 µg/mL (≈ 0.145 µM) | > 64 µg/mL | – |
| CN(CCCCOc1ccc(F)cc1)CC(O)(Cn1cncn1)c1ccc(F)cc1F (centres undefined) | 0.0625 µg/mL (≈ 0.144 µM) | 0.0156 µg/mL (≈ 0.0359 µM) | 0.0625 µg/mL (≈ 0.144 µM) | 0.004 µg/mL (≈ 0.00921 µM) | 0.0156 µg/mL (≈ 0.0359 µM) | 16 µg/mL (≈ 36.8 µM) | – |
| CN(CCCCOc1ccc(Cl)cc1)CC(O)(Cn1cncn1)c1ccc(F)cc1F (centres undefined) | 0.0156 µg/mL (≈ 0.0346 µM) | 0.001 µg/mL (≈ 0.00222 µM) | 0.0156 µg/mL (≈ 0.0346 µM) | 0.001 µg/mL (≈ 0.00222 µM) | 0.0625 µg/mL (≈ 0.139 µM) | 4 µg/mL (≈ 8.87 µM) | – |
| CN(CCCCOc1ccccc1Cl)CC(O)(Cn1cncn1)c1ccc(F)cc1F (centres undefined) | 0.0156 µg/mL (≈ 0.0346 µM) | 0.0156 µg/mL (≈ 0.0346 µM) | 0.0625 µg/mL (≈ 0.139 µM) | 0.0156 µg/mL (≈ 0.0346 µM) | 0.0625 µg/mL (≈ 0.139 µM) | > 64 µg/mL | – |
| CN(CCCCOc1ccc(C(C)(C)C)cc1)CC(O)(Cn1cncn1)c1ccc(F)cc1F (centres undefined) | 0.25 µg/mL (≈ 0.529 µM) | 0.0625 µg/mL (≈ 0.132 µM) | 0.0625 µg/mL (≈ 0.132 µM) | 0.0625 µg/mL (≈ 0.132 µM) | 0.0625 µg/mL (≈ 0.132 µM) | > 64 µg/mL | – |
| Cc1cccc(OCCCCN(C)CC(O)(Cn2cncn2)c2ccc(F)cc2F)c1 (centres undefined) | 0.0625 µg/mL (≈ 0.145 µM) | 0.0156 µg/mL (≈ 0.0362 µM) | 0.0625 µg/mL (≈ 0.145 µM) | 0.0156 µg/mL (≈ 0.0362 µM) | 0.0625 µg/mL (≈ 0.145 µM) | 64 µg/mL (≈ 149 µM) | – |
| CN(CCCCOc1cccc(N)c1)CC(O)(Cn1cncn1)c1ccc(F)cc1F (centres undefined) | 0.25 µg/mL (≈ 0.579 µM) | 0.0156 µg/mL (≈ 0.0362 µM) | 0.0625 µg/mL (≈ 0.145 µM) | 0.0156 µg/mL (≈ 0.0362 µM) | 0.25 µg/mL (≈ 0.579 µM) | > 64 µg/mL | – |
| CN(CCCCOc1ccc(OCc2ccccc2)cc1)CC(O)(Cn1cncn1)c1ccc(F)cc1F (centres undefined) | 0.0156 µg/mL (≈ 0.0299 µM) | 0.0156 µg/mL (≈ 0.0299 µM) | 0.0156 µg/mL (≈ 0.0299 µM) | 0.0156 µg/mL (≈ 0.0299 µM) | 0.0625 µg/mL (≈ 0.12 µM) | 32 µg/mL (≈ 61.2 µM) | – |
| COc1ccc(OCCCCN(C)CC(O)(Cn2cncn2)c2ccc(F)cc2F)cc1 (centres undefined) | 0.0625 µg/mL (≈ 0.14 µM) | 0.0156 µg/mL (≈ 0.0349 µM) | 0.0625 µg/mL (≈ 0.14 µM) | 0.004 µg/mL (≈ 0.00896 µM) | 0.0156 µg/mL (≈ 0.0349 µM) | 16 µg/mL (≈ 35.8 µM) | – |
| CN(CCCCOc1ccc(Br)cc1)CC(O)(Cn1cncn1)c1ccc(F)cc1F (centres undefined) | 0.004 µg/mL (≈ 0.00807 µM) | 0.001 µg/mL (≈ 0.00202 µM) | 0.0156 µg/mL (≈ 0.0315 µM) | 0.001 µg/mL (≈ 0.00202 µM) | 0.0156 µg/mL (≈ 0.0315 µM) | 4 µg/mL (≈ 8.07 µM) | 4 |
| CN(CCCCOc1cccc(Br)c1)CC(O)(Cn1cncn1)c1ccc(F)cc1F (centres undefined) | 0.0625 µg/mL (≈ 0.126 µM) | 0.0625 µg/mL (≈ 0.126 µM) | 0.0156 µg/mL (≈ 0.0315 µM) | 0.001 µg/mL (≈ 0.00202 µM) | 0.0625 µg/mL (≈ 0.126 µM) | 64 µg/mL (≈ 129 µM) | – |
| CN(CCCCOc1cccc([N+](=O)[O-])c1)CC(O)(Cn1cncn1)c1ccc(F)cc1F (centres undefined) | 0.0625 µg/mL (≈ 0.135 µM) | 0.0156 µg/mL (≈ 0.0338 µM) | 0.0625 µg/mL (≈ 0.135 µM) | 0.004 µg/mL (≈ 0.00867 µM) | 0.0625 µg/mL (≈ 0.135 µM) | 64 µg/mL (≈ 139 µM) | – |
| CN(CCCCOc1ccccc1[N+](=O)[O-])CC(O)(Cn1cncn1)c1ccc(F)cc1F (centres undefined) | 0.25 µg/mL (≈ 0.542 µM) | 0.0625 µg/mL (≈ 0.135 µM) | 0.0625 µg/mL (≈ 0.135 µM) | 0.0625 µg/mL (≈ 0.135 µM) | 0.0625 µg/mL (≈ 0.135 µM) | > 64 µg/mL | – |
| CN(CCCCOc1ccc(N)cc1)CC(O)(Cn1cncn1)c1ccc(F)cc1F (centres undefined) | 0.25 µg/mL (≈ 0.579 µM) | 0.0625 µg/mL (≈ 0.145 µM) | 0.25 µg/mL (≈ 0.579 µM) | 0.0156 µg/mL (≈ 0.0362 µM) | 1 µg/mL (≈ 2.32 µM) | > 64 µg/mL | – |
| CN(CCCCOc1ccc(OC(F)(F)F)cc1)CC(O)(Cn1cncn1)c1ccc(F)cc1F (centres undefined) | 0.0625 µg/mL (≈ 0.125 µM) | 0.0156 µg/mL (≈ 0.0312 µM) | 0.0625 µg/mL (≈ 0.125 µM) | 0.004 µg/mL (≈ 0.00799 µM) | 0.0156 µg/mL (≈ 0.0312 µM) | > 64 µg/mL | – |
| CN(CCCCOc1ccc([N+](=O)[O-])cc1)CC(O)(Cn1cncn1)c1ccc(F)cc1F (centres undefined) | 0.0156 µg/mL (≈ 0.0338 µM) | 0.001 µg/mL (≈ 0.00217 µM) | 0.0156 µg/mL (≈ 0.0338 µM) | 0.004 µg/mL (≈ 0.00867 µM) | 0.0625 µg/mL (≈ 0.135 µM) | 64 µg/mL (≈ 139 µM) | – |
| CN(CCCCOc1ccccc1N)CC(O)(Cn1cncn1)c1ccc(F)cc1F (centres undefined) | 1 µg/mL (≈ 2.32 µM) | 0.0625 µg/mL (≈ 0.145 µM) | 0.25 µg/mL (≈ 0.579 µM) | 0.0156 µg/mL (≈ 0.0362 µM) | 1 µg/mL (≈ 2.32 µM) | > 64 µg/mL | – |
| OC(Cn1cncn1)(Cn1cncn1)c1ccc(F)cc1F [FLUCONAZOLE] | 1 µg/mL (≈ 3.27 µM) | 0.25 µg/mL (≈ 0.816 µM) | 1 µg/mL (≈ 3.27 µM) | 1 µg/mL (≈ 3.27 µM) | 0.25 µg/mL (≈ 0.816 µM) | > 64 µg/mL | – |
| CCC(C)n1ncn(-c2ccc(N3CCN(c4ccc(OCC5COC(Cn6cncn6)(c6ccc(Cl)cc6Cl)O5)cc4)CC3)cc2)c1=O (centres undefined) [ITRACONAZOLE] | 0.5 µg/mL (≈ 0.709 µM) | 0.125 µg/mL (≈ 0.177 µM) | 0.125 µg/mL (≈ 0.177 µM) | 0.0156 µg/mL (≈ 0.0221 µM) | 0.125 µg/mL (≈ 0.177 µM) | 2 µg/mL (≈ 2.83 µM) | – |
| C[C@@H](c1ncncc1F)[C@](O)(Cn1cncn1)c1ccc(F)cc1F [VORICONAZOLE] | 0.0156 µg/mL (≈ 0.0447 µM) | 0.0156 µg/mL (≈ 0.0447 µM) | 0.0156 µg/mL (≈ 0.0447 µM) | 0.001 µg/mL (≈ 0.00286 µM) | 0.0156 µg/mL (≈ 0.0447 µM) | 0.25 µg/mL (≈ 0.716 µM) | – |
